According to patent EP0158299A2, “Substituted phenylethyl derivatives, process for their preparation and pharmaceutical agents” (Merz & Co. GmbH & Co., priority 1984, dated 1985):
Converted amounts (≈) assume the structure as drawn. Counter-ions that a name gives are not always drawn.

Columns and labels:
Assay type in all cases: cell-based
Streptococcus pyogenes = test: serial dilution test against bacterial strains (MIC); conditions: Bakterienstämme S.p. = Streptococcus pyogenes; read-out: Minimale Hemmkonzentrationen
Source text: (§1) Die erfindungemäßen Verbindungen wurden im Reihenverdünnungstest auf ihre fungistatische Wirksamkeit gegen verschiedene Pilzspezies und gegen verschiedene Bakterienstämme geprüft. Die so ermittelten minimalen Hemmkonzentrationen (MHK) sind in den folgenden Tabellen wiedergegeben: […]

Staphylococcus aureus = test: as above; conditions: Bakterienstämme S.a. = Staphylococcus aureus; read-out: Minimale Hemmkonzentrationen
Source text: as §1

Streptococcus faecalis = test: as above; conditions: Enterococcus faecalis; Bakterienstämme S.f. = Streptococcus faecalis; read-out: Minimale Hemmkonzentrationen
Source text: as §1

T.r. = test: serial dilution test, fungistatic activity (MIC); conditions: Pilzspezies T.r.; read-out: Minimale Hemmkonzentrationen
Source text: as §1

T.m. = test: serial dilution test, fungistatic activity (MIC); conditions: Pilzspezies T.m.; read-out: Minimale Hemmkonzentrationen
Source text: as §1

A.f. = test: serial dilution test, fungistatic activity (MIC); conditions: Pilzspezies A.f.; read-out: Minimale Hemmkonzentrationen
Source text: as §1

C.t. = test: serial dilution test, fungistatic activity (MIC); conditions: Pilzspezies C.t.; read-out: Minimale Hemmkonzentrationen
Source text: as §1

C.a. = test: serial dilution test, fungistatic activity (MIC); conditions: Pilzspezies C.a.; read-out: Minimale Hemmkonzentrationen
Source text: as §1

S.s. = test: serial dilution test, fungistatic activity (MIC); conditions: Pilzspezies S.s.; read-out: Minimale Hemmkonzentrationen
Source text: as §1

A.c. = test: serial dilution test, fungistatic activity (MIC); conditions: Pilzspezies A.c.; read-out: Minimale Hemmkonzentrationen
Source text: as §1

M.c. = test: serial dilution test, fungistatic activity (MIC); conditions: Pilzspezies M.c.; read-out: Minimale Hemmkonzentrationen
Source text: as §1

## FC(F)(Oc1ccc(COC(Cn2ccnc2)c2ccc(Cl)cc2Cl)cc1)C(Cl)Cl (stereo not shown) [Verbind. IV, 1-(2,4-Dichlorphenyl)-1-(4-(2,2-dichlor-1,1-difluor-ethoxy)benzyloxy)-2-(1H-imidazol-1-yl)ethan-hydrochlorid]
Streptococcus pyogenes
  MIC: < 0.2 µg/mL
Staphylococcus aureus
  MIC: 3.1 µg/mL
Streptococcus faecalis
  MIC: 1.6 µg/mL
T.r.
  MIC: 0.1 µg/mL
T.m.
  MIC: 0.1 µg/mL
A.f.
  MIC: 3.1 µg/mL
C.t.
  MIC: 0.1 µg/mL
C.a.
  MIC: 0.1 µg/mL

## Clc1ccc(C(Cn2ccnc2)OCc2ccc(C3CC3(Cl)Cl)cc2)c(Cl)c1 (stereo not shown) [Verbind. III, 1-(2,4-Dichlorphenyl)-1-(4-(2,2-dichlorcyclopropyl)benzyloxy)-2-(1H-imidazol-1-yl)ethan-nitrat]
S.s.
  MIC: 0.2 µg/mL (≈ 0.438 µM)
T.r.
  MIC: 0.8 µg/mL (≈ 1.75 µM)
T.m.
  MIC: 0.8 µg/mL (≈ 1.75 µM)
A.f.
  MIC: 1.6 µg/mL (≈ 3.51 µM)
C.t.
  MIC: 3.1 µg/mL (≈ 6.8 µM)
C.a.
  MIC: 0.05 µg/mL (≈ 0.11 µM)

## FC(F)(Oc1ccc(CON=C(Cn2ccnc2)c2ccc(Cl)cc2Cl)cc1)C(Cl)Cl [Verbind. I, 1-(2,4-Dichlorphenyl)-2-(1H-imidazol-1-yl)-0-(4-(2,2-dichlor-1,1-difluorethoxy)benzyl)ethanonoxim-nitrat]
Streptococcus pyogenes
  MIC: 0.8 µg/mL (≈ 1.57 µM)
Staphylococcus aureus
  MIC: 6.25 µg/mL (≈ 12.3 µM)
Streptococcus faecalis
  MIC: 12.5 µg/mL (≈ 24.5 µM)
T.r.
  MIC: 6.25 µg/mL (≈ 12.3 µM)
T.m.
  MIC: 6.25 µg/mL (≈ 12.3 µM)
A.f.
  MIC: 12.5 µg/mL (≈ 24.5 µM)
C.t.
  MIC: 0.8 µg/mL (≈ 1.57 µM)
A.c.
  MIC: 1.6 µg/mL (≈ 3.14 µM)
C.a.
  MIC: 0.1 µg/mL (≈ 0.196 µM)
M.c.
  MIC: 3.1 µg/mL (≈ 6.09 µM)

## Clc1ccc(C(Cn2ccnc2)=NOCc2ccc(C3CC3(Cl)Cl)cc2)c(Cl)c1 (stereo not shown) [Verbind. II, 1-(2,4-Dichlorphenyl)-2-(1H-imidazol-1-yl)-0-(4-(2,2-di-chlorcyclopropyl)benzyl)ethanonoxim-nitrat]
S.s.
  MIC: 1.6 µg/mL (≈ 3.41 µM)
T.r.
  MIC: 6.2 µg/mL (≈ 13.2 µM)
T.m.
  MIC: 12.5 µg/mL (≈ 26.6 µM)
A.f.
  MIC: 25 µg/mL (≈ 53.3 µM)
C.t.
  MIC: 25 µg/mL (≈ 53.3 µM)
C.a.
  MIC: 3.1 µg/mL (≈ 6.61 µM)

## FC(Cl)C(F)(F)Oc1ccc(COC(Cn2ccnc2)c2ccc(Cl)cc2Cl)cc1 (stereo not shown) [Verbind. VI, 1-(2,4-Dichlorphenyl)-1-(4-(2-chlor-1,1,2-trifluorethoxy)benzyloxy)-2-(1H-imidazol-1-yl)ethan-nitrat]
S.s.
  MIC: 0.1 µg/mL (≈ 0.208 µM)
T.r.
  MIC: 0.8 µg/mL (≈ 1.67 µM)
T.m.
  MIC: 0.8 µg/mL (≈ 1.67 µM)
A.f.
  MIC: 1.6 µg/mL (≈ 3.34 µM)
C.t.
  MIC: 1.6 µg/mL (≈ 3.34 µM)
C.a.
  MIC: 0.05 µg/mL (≈ 0.104 µM)
M.c.
  MIC: 0.2 µg/mL (≈ 0.417 µM)
